ChEMBL document CHEMBL1201862, “PubChem BioAssay data set” (2004)
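Cultured in 96-well plates, cells were exposed to test compound for 48 hours across five concentrations. At the GI50, growth is halved.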 The source made the active and inactive calls. No stated cut-off is given here; in the data, active = GI50 up to about 1.1 µM and inactive = higher.

Key:
Test in all cases: inhibition of tumour cell growth, NCI panel, 48 h
[1] = test system: SF-295
[2] = test system: HOP-92
[3] = test system: NCI-H460
[4] = test system: SK-MEL-5
[5] = test system: M14
[6] = test system: UACC-62
[7] = test system: SK-MEL-28
[8] = test system: OVCAR-5
[9] = test system: OVCAR-8
[10] = test system: MOLT-4
[11] = test system: HCT-15
[12] = test system: OVCAR-3
[13] = test system: SK-OV-3
[14] = test system: NCI-H23
[15] = test system: U-251
[16] = test system: SK-MEL-2
[17] = test system: HT-29

## O=C(c1ccccc1)c1nnn(Cc2ccccc2Cn2nnc(C(=O)c3ccccc3)c2C(=O)c2ccccc2)c1C(=O)c1ccccc1
[1]
  GI50: > 100 µM (inactive)
[2]
  GI50: > 100 µM (inactive)
[3]
  GI50: > 100 µM (inactive)
[4]
  GI50: > 100 µM (inactive)
[5]
  GI50: > 100 µM (inactive)
[6]
  GI50: > 100 µM (inactive)
[7]
  GI50: > 100 µM (inactive)
[8]
  GI50: > 100 µM (inactive)
[9]
  GI50: > 100 µM (inactive)
[10]
  GI50: > 100 µM (inactive)
[11]
  GI50: > 100 µM
[12]
  GI50: > 100 µM (inactive)
[13]
  GI50: > 100 µM (inactive)
[14]
  GI50: > 100 µM (inactive)
[15]
  GI50: > 100 µM (inactive)
[16]
  GI50: > 100 µM (inactive)
[17]
  GI50: > 100 µM (inactive)

## COc1ccc(-c2c(C3=NCCCN3)nnn2-c2ccc([N+](=O)[O-])cc2)cc1
[1]
  GI50: > 100 µM (inactive)
[2]
  GI50: > 100 µM (inactive)
[3]
  GI50: > 100 µM (inactive)
[4]
  GI50: > 100 µM (inactive)
[5]
  GI50: > 100 µM (inactive)
[6]
  GI50: > 100 µM (inactive)
[7]
  GI50: > 100 µM (inactive)
[8]
  GI50: > 100 µM (inactive)
[9]
  GI50: > 100 µM (inactive)
[10]
  GI50: > 100 µM (inactive)
[11]
  GI50: > 100 µM
[12]
  GI50: > 100 µM (inactive)
[13]
  GI50: 34.8 µM (inactive)
[14]
  GI50: > 100 µM (inactive)
[15]
  GI50: > 100 µM (inactive)
[16]
  GI50: > 100 µM (inactive)
[17]
  GI50: > 100 µM (inactive)

## CCCCCCC(=O)CC(=O)C(=O)Nc1ccccc1C
[1]
  GI50: > 100 µM (inactive)
[2]
  GI50: > 100 µM (inactive)
[3]
  GI50: > 51.1 µM (inactive)
[4]
  GI50: > 100 µM (inactive)
[5]
  GI50: > 100 µM (inactive)
[6]
  GI50: > 100 µM (inactive)
[7]
  GI50: > 100 µM (inactive)
[8]
  GI50: > 100 µM (inactive)
[9]
  GI50: > 100 µM (inactive)
[10]
  GI50: > 100 µM (inactive)
[11]
  GI50: > 44.4 µM
[12]
  GI50: > 100 µM (inactive)
[13]
  GI50: > 100 µM (inactive)
[14]
  GI50: > 100 µM (inactive)
[15]
  GI50: > 89.1 µM (inactive)
[16]
  GI50: > 100 µM (inactive)
[17]
  GI50: > 100 µM (inactive)

## COc1ccc(-c2c(C3=NCCN3)nnn2-c2ccccc2)cc1
[1]
  GI50: > 100 µM (inactive)
[2]
  GI50: > 100 µM (inactive)
[3]
  GI50: > 100 µM (inactive)
[4]
  GI50: > 100 µM (inactive)
[5]
  GI50: > 100 µM (inactive)
[6]
  GI50: > 100 µM (inactive)
[7]
  GI50: > 100 µM (inactive)
[8]
  GI50: > 100 µM (inactive)
[9]
  GI50: > 100 µM (inactive)
[10]
  GI50: > 100 µM (inactive)
[11]
  GI50: > 100 µM
[12]
  GI50: > 100 µM (inactive)
[13]
  GI50: > 100 µM (inactive)
[14]
  GI50: > 100 µM (inactive)
[15]
  GI50: > 100 µM (inactive)
[16]
  GI50: > 100 µM (inactive)
[17]
  GI50: 91.2 µM (inactive)

## CC(=O)NC1C(OCc2ccccc2)OC(COC(=O)CCCCCNc2ccc([N+](=O)[O-])c3[nH]c4ccc(O)cc4c(=O)c23)C(O)C1OC(C)C(=O)N[C@@H](C)C(=O)N[C@H](CCC(=O)OCc1ccccc1)C(N)=O (some centres not stated)
[1]
  GI50: 3.08 µM (inactive)
[2]
  GI50: 0.879 µM (active)
[3]
  GI50: 0.261 µM (active)
[4]
  GI50: 8.53 µM (inactive)
[5]
  GI50: 1.49 µM (inactive)
[6]
  GI50: 1.77 µM (inactive)
[7]
  GI50: 2.69 µM (inactive)
[8]
  GI50: 1.06 µM (active)
[9]
  GI50: 1.64 µM (inactive)
[10]
  GI50: 1.87 µM (inactive)
[11]
  GI50: 0.745 µM
[12]
  GI50: 2.15 µM (inactive)
[13]
  GI50: 2.99 µM (inactive)
[14]
  GI50: 1.35 µM (inactive)
[15]
  GI50: 2.45 µM (inactive)
[16]
  GI50: 1.95 µM (inactive)
[17]
  GI50: 0.401 µM (active)

## CC(C)(Oc1ccc(/C=C/C(=O)c2ccccc2)cc1)C(=O)Nc1c(Cl)cccc1Cl
[1]
  GI50: > 10 µM (inactive)
[2]
  GI50: > 10 µM (inactive)
[3]
  GI50: > 10 µM (inactive)
[4]
  GI50: > 10 µM (inactive)
[5]
  GI50: > 10 µM (inactive)
[6]
  GI50: > 10 µM (inactive)
[7]
  GI50: > 10 µM (inactive)
[8]
  GI50: > 10 µM (inactive)
[9]
  GI50: > 10 µM (inactive)
[10]
  GI50: > 10 µM (inactive)
[11]
  GI50: > 10 µM
[12]
  GI50: 6.95 µM (inactive)
[13]
  GI50: > 10 µM (inactive)
[14]
  GI50: 7.33 µM (inactive)
[15]
  GI50: 7.14 µM (inactive)
[16]
  GI50: > 10 µM (inactive)
[17]
  GI50: > 10 µM (inactive)
